# Measurements: patent publication US10604502B2, “Substituted 5-cyanoindole compounds and uses thereof” (Novartis AG, priority 2017, dated 2020)
# Tested on: CD86 mRNA expression in MV4-11 cells
# Test: CD86 mRNA expression assay (qPCR assay) in MV4-11 cells
# Format: cell-based
# Conditions: Homo sapiens, 24 hours treatment, CD86 mRNA normalized against ACTB, read-out: CD86 induction qPCR in MV4-11 AC50
# Protocol: MV4-11 cells were treated with representative compound of the present invention and RNA was extracted, followed by reverse transcription and Real-Time PCR. […] The data were used for dose response curve fitting in GraphPad Prism to calculate the AC50 of each compound. AC50 of CD86 mRNA expression activation after treatment of representative compounds of present invention will reflect the inhibition of LSD1 activity.
row,Structure (SMILES),AC50
1,"Cc1cc2c(cc1C#N)c(-c1cncc(N)c1Cl)cn2[C@H]1CC[C@H](O)CC1 [Example 1, 3-(5-amino-4-chloropyridin-3-yl)-1-((1R,4R)-4-hydroxycyclohexyl)-6-methyl-1H-indole-5-carbonitrile]",98 nM
2,"Cc1cc2c(cc1C#N)c(-c1cncc(N)c1F)cn2[C@H]1CC[C@H](O)CC1 [Example 5, 3-(5-amino-4-fluoropyridin-3-yl)-1-((1R,4R)-4-hydroxycyclohexyl)-6-methyl-1H-indole-5-carbonitrile]",3620 nM
3,"N#Cc1cc2c(-c3cncc(N)c3Cl)cn([C@H]3CC[C@H](O)CC3)c2cc1Cl [Example 7, 3-(5-amino-4-chloropyridin-3-yl)-6-chloro-1-((1R,4R)-4-hydroxycyclohexyl)-1H-indole-5-carbonitrile]",569 nM
4,"Cc1cc2c(cc1C#N)c(-c1cncc(N)c1Cl)cn2[C@H]1CC[C@H](S(C)(=O)=O)CC1 [Example 47, 3-(5-amino-4-chloropyridin-3-yl)-6-methyl-1-((1R,4R)-4-(methylsulfonyl)cyclohexyl)-1H-indole-5-carbonitrile]",202 nM
5,"Cc1cc2c(cc1C#N)c(-c1cncc(N)c1Cl)cn2C1CCC(C(N)=O)C1 (stereo not shown) [Example 68, 3(3-(5-amino-4-chloropyridin-3-yl)-5-cyano-6-methyl-1H-indol-1-yl)cyclopentane-1-carboxamide]",464 nM
6,"Cc1cc2c(cc1C#N)c(-c1cncc(N)c1Cl)cn2-c1ccc(S(C)(=O)=O)cc1 [Example 77, 3-(5-amino-4-chloropyridin-3-yl)-6-methyl-1-(4-(methylsulfonyl)phenyl)-1H-indole-5-carbonitrile]",7 nM
7,"Cc1cc2c(cc1C#N)c(-c1cncc(N)c1Cl)cn2-c1ccc(=O)n(C)c1 [Example 84, 3-(5-amino-4-chloropyridin-3-yl)-6-methyl-1-(1-methyl-6-oxo-1,6-dihydropyridin-3-yl)-1H-indole-5-carbonitrile]",1490 nM
